Here are results for 4 compounds from paper PMC12645083, “Microwave‐Enhanced Synthesis of 2‐Styrylquinoline‐4‐Carboxamides With Promising Anti‐Lymphoma Activity” (Archiv Der Pharmazie, 2025).

For one test, the system named is SU-DHL-18. The experiment in a line: Antiproliferative activity on lymphoma-derived cell lines, resazurin. Type of test: cell-based. The note with it: Homo sapiens; lymph node lymphoma; 72 h of treatment; mean ± SEM. The method, then: (§1) To test the newly synthesized compounds, various human cell lines were employed. HD‐MB03 cells were purchased from DSMZ (Braunschweig, Germany), while A549, MDA‐MB‐231, RPMI‐8420, SU‐DHL‐8, TOLEDO, VL51, SU‐DHL‐1, SU‐DHL‐18, and KM‐H2 were obtained from ATCC (Manassas, VA, USA). Cells were cultured in DMEM (for MDA‐MB‐231 and A549) or RPMI‐1640 (for RPMI‐8420, SU‐DHL‐8, TOLEDO, VL51, SU‐DHL‐1, SU‐DHL‐18, KM‐H2, and HD‐MB03) media (Gibco, Milan, Italy). Both media were supplemented with 115 units/mL penicillin G (Gibco, Milan, Italy), 115 µg/mL streptomycin (Invitrogen, Milan, Italy), and 10% fetal bovine serum (Invitrogen, Milan, Italy). Peripheral blood mononuclear cells (PBMCs) were isolated from healthy donors as previously described. For cytotoxicity assays, PBMCs were resuspended at 5 × 10⁵ cells/mL in complete RPMI medium with or without 2.5 µg/mL phytohemagglutinin (PHA) (Irvine Scientific) to stimulate T‐cell activation and proliferation. All cell lines were maintained at 37°C in a humidified atmosphere containing 5% CO₂. All compounds were dissolved in DMSO at a 10 mM stock concentration. For dose–response assays, cells were seeded in 96‐well plates at densities optimized for each cell line: HD‐MB03 at 10,000 cells/well, A549 at 4000 cells/well, and MDA‐MB‐231 at 7000 cells/well. All other cell lines were seeded at 20,000 cells/well in a final volume of 100 µL per well. After 24 h, cells were treated with a 6‐point serial dilution of compounds starting from 10 µM, in triplicate for statistical analysis. Seventy‐2 h posttreatment, 10 µL of resazurin solution (100 µg/mL) was added to each well, and cells were incubated for an additional 3–6 h. Fluorescence was measured using a Spark 10 M microplate reader (Tecan Group Ltd., Männedorf, Switzerland) with excitation at 535 nm and emission at 600 nm. The IC₅₀ was defined as the concentration of compound required to inhibit cell proliferation by 50% compared to cells treated with the highest DMSO concentration.
(§2) To test the newly synthesized compounds, various human cell lines were employed. HD-MB03 cells were purchased from DSMZ (Braunschweig, Germany), while A549, MDA-MB-231, RPMI-8420, SU-DHL-8, TOLEDO, VL51, SU-DHL-1, SU-DHL-18, and KM-H2 were obtained from ATCC (Manassas, VA, USA). Cells were cultured in DMEM (for MDA-MB-231 and A549) or RPMI-1640 (for RPMI-8420, SU-DHL-8, TOLEDO, VL51, SU-DHL-1, SU-DHL-18, KM-H2, and HD-MB03) media (Gibco, Milan, Italy). Both media were supplemented with 115 units/mL penicillin G (Gibco, Milan, Italy), 115 µg/mL streptomycin (Invitrogen, Milan, Italy), and 10% fetal bovine serum (Invitrogen, Milan, Italy). Peripheral blood mononuclear cells (PBMCs) were isolated from healthy donors as previously described. ^[1] For cytotoxicity assays, PBMCs were resuspended at 5 × 10⁵ cells/mL in complete RPMI medium with or without 2.5 µg/mL phytohemagglutinin (PHA) (Irvine Scientific) to stimulate T cell activation and proliferation. All cell lines were maintained at 37 °C in a humidified atmosphere containing 5% CO₂. All compounds were dissolved in DMSO at a 10 mM stock concentration. For dose–response assays, cells were seeded in 96-well plates at densities optimized for each cell line: HD-MB03 at 10,000 cells/well, A549 at 4,000 cells/well, and MDA-MB-231 at 7,000 cells/well. All other cell lines were seeded at 20,000 cells/well in a final volume of 100 µL per well. After 24 hours, cells were treated with a 6-point serial dilution of compounds starting from 10 µM, in triplicate for statistical analysis. Seventy-two hours post-treatment, 10 µL of resazurin solution (100 µg/mL) was added to each well, and cells were incubated for an additional 3–6 hours. Fluorescence was measured using a Spark 10M microplate reader (Tecan Group Ltd., Männedorf, Switzerland) with excitation at 535 nm and emission at 600 nm. […]

A further test relates to SU-DHL-1. The test is described as above. Type of test: cell-based. The following applies: Homo sapiens, histiocytic large cell lymphoma, 72 h of treatment, mean ± SEM. The method, then:
as §1, §2

A further test has as its system KM-H2. The test is described as above. Type of test: cell-based. The following applies: Homo sapiens, Hodgkin lymphoma, 72 h of treatment, mean ± SEM. The method, then:
as §1, §2

The next test deals with VL51. The description is as above. Type of test: cell-based. The following applies: Homo sapiens, splenic B-cell lymphoma, 72 h of treatment, mean ± SEM. The method, then:
as §1, §2

In another test the test system is TOLEDO. The test is described as above. Type of test: cell-based. The note with it: Homo sapiens, diffuse large B-cell lymphoma, 72 h of treatment, mean ± SEM. The method, then: as §1, §2
The test system of another test is HD-MB03. The test is described as follows: In vitro antiproliferative activity, resazurin cell viability. The note with it: Homo sapiens, medulloblastoma cells, 72 h of treatment, mean ± SEM, at least three experiments. Type of test: cell-based.
The test system of another test is A549. The test is described as above. Type of test: cell-based. The note with it: Homo sapiens, non-small cell lung cancer, 72 h of treatment, mean ± SEM.
The next test concerns SU-DHL-8. Described as above. Type of test: cell-based. The following applies: Homo sapiens, B lymphocyte, large cell lymphoma, 72 h of treatment, mean ± SEM.
The subject of a further test is MDA-MB-231. Described as above. The note with it: Homo sapiens, triple-negative breast cancer, 72 h of treatment, mean ± SEM. Type of test: cell-based.
In a further test the test system is RPMI-8402. Described as above. Type of test: cell-based. The following applies: Homo sapiens, T-lymphoblastic leukemia cells, 72 h of treatment, mean ± SEM.
Test [1] deals with panel of five lymphoma cell lines (VL51, TOLEDO, SU-DHL-18, SU-DHL-1, KM-H2). The test is described as follows: Antiproliferative activity, range over the panel of five lymphoma cell lines. Type of test: cell-based, human. The note with it: range or statement over the lymphoma cell lines, 72 h; for IC50: Homo sapiens.
Text: Based on these interesting results on hematological malignancies‐derived cell lines, styrylquinolines 4i, 4n, 4s and 4ah were further tested for their antiproliferative activity on a panel of five lymphoma cell lines (VL51, splenic B‐cell lymphoma; TOLEDO, diffuse large B‐cell lymphoma, non‐Hodgkin lymphoma; SU‐DHL‐18, lymph node lymphoma; SU‐DHL‐1, histiocytic large cell lymphoma; KM‐H2, Hodgkin lymphoma) (Table 3). In this case, a different behaviour was observed.
as §1

Regarding `COc1cc(/C=C/c2cc(C(=O)Nc3ccc([N+](=O)[O-])cc3)c3ccccc3n2)cc(OC)c1OC` [4s, (E)-N-(4-nitrophenyl)-2-(3,4,5-trimethoxystyryl)quinoline-4-carboxamide], the IC50 in the test on SU-DHL-18, in the test with SU-DHL-1, with KM-H2, in the test on VL51, with TOLEDO and in the test with HD-MB03 was greater than 10 µM in each case. For the same compound, the IC50 with A549 was greater than 10 µM; with SU-DHL-8, 1.37 ± 0.14 µM; in the test on MDA-MB-231 it was greater than 10 µM; in the test with RPMI-8402 it was greater than 10 µM. In addition, the “IC50 values, range over lymphoma cell lines” value in test [1] is “devoid of antiproliferative activity”.

For `O=C(Nc1ccc([N+](=O)[O-])cc1)c1cc(/C=C/c2ccccc2)nc2ccccc12` [4i, (E)-N-(4-nitrophenyl)-2-styrylquinoline-4-carboxamide], the IC50 with SU-DHL-18 is 7.6 ± 2.8 µM; with SU-DHL-1, 2.32 ± 1.46 µM; with KM-H2, 2.8 ± 0.21 µM; in the test with VL51, 1.03 ± 0.02 µM; in the test on TOLEDO, 1.05 ± 0.09 µM; in the test with HD-MB03 it was greater than 10 µM. For the same compound, the half-maximal inhibitory concentration (IC50) in the test with A549 is greater than 10 µM; with SU-DHL-8, 1.64 ± 0.25 µM; in the test on MDA-MB-231, greater than 10 µM; with RPMI-8402 it was 1.14 ± 0.12 µM; in test [1], 1.03 to 7.6 µM.

Consider `O=C(Nc1ccc(Cl)cc1)c1cc(/C=C/c2ccccc2[N+](=O)[O-])nc2ccccc12` [4ah, (E)-N-(4-chlorophenyl)-2-(2-nitrostyryl)quinoline-4-carboxamide], for which the half-maximal inhibitory concentration (IC50) with SU-DHL-18 is 3.79 ± 0.51 µM; in the test on SU-DHL-1, 4.9 ± 0.31 µM; with KM-H2, 6.74 ± 2.12 µM; in the test with VL51, greater than 10 µM; in the test on TOLEDO, 4.93 ± 0.62 µM; in the test with HD-MB03 it was greater than 10 µM. Also, the IC50 with A549 is 6.92 ± 0.68 µM; with SU-DHL-8, 2.15 ± 0.45 µM; with MDA-MB-231, 4.99 ± 0.35 µM; in the test on RPMI-8402 it was 1.33 ± 0.02 µM; in [1], 3.79 to 6.74 µM.

With `COc1cc(/C=C/c2cc(C(=O)Nc3c(C)cccc3C)c3ccccc3n2)cc(OC)c1OC` [4n, (E)-N-(2,6-dimethylphenyl)-2-(3,4,5-trimethoxystyryl)quinoline-4-carboxamide], the IC50 in the test with SU-DHL-18, in the test with SU-DHL-1, in the test with KM-H2, in the test with VL51, in the test with TOLEDO and in the test on HD-MB03 was greater than 10 µM in each case. For the same compound, the 50% inhibitory concentration (IC50) in the test with A549 was greater than 10 µM; in the test on SU-DHL-8, 0.46 ± 0.05 µM; with MDA-MB-231, greater than 10 µM; in the test with RPMI-8402 it was 0.79 ± 0.07 µM. Further, the “IC50 values, range over lymphoma cell lines” value in [1] was “devoid of antiproliferative activity”.
